Assay results published in ChEMBL document CHEMBL3124844 (J Med Chem, 2014).

How the values were obtained:
[1] = target: Sodium-dependent serotonin transporter (Rattus norvegicus, UniProt P31652); test: Displacement of [3H]citalopram from Sprague-Dawley rat brain SERT after 60 mins by liquid scintillation counting analysis; format: tissue-based
[2] = target: T1, Sodium-dependent dopamine transporter (Rattus norvegicus, UniProt P23977); test: Displacement of [3H]WIN35,428 from Sprague-Dawley rat brain DAT after 120 mins by liquid scintillation counting analysis; format: tissue-based
[3] = Displacement of [3H]nisoxetine from Sprague-Dawley rat brain NET after 180 mins by liquid scintillation counting analysis; format: tissue-based
Rattus norvegicus [4] = organism: Rattus norvegicus; test: Displacement of [3H]nisoxetine from Sprague-Dawley rat brain NET at 100 uM after 180 mins by liquid scintillation counting analysis relative to control; format: tissue-based
[5] = target: Sodium-dependent serotonin transporter (Rattus norvegicus) (UniProt P31652); test: Displacement of [3H]citalopram from Sprague-Dawley rat brain SERT at 100 uM after 60 mins by liquid scintillation counting analysis relative to control; format: tissue-based
[6] = target: T1, Sodium-dependent dopamine transporter; test: Displacement of [3H]WIN35,428 from rat brain DAT; format: tissue-based
Rattus norvegicus [7] = organism: Rattus norvegicus; test: Selectivity ratio of Ki for Sprague-Dawley rat brain SERT to Ki for Sprague-Dawley rat brain DAT

Sequence of Sodium-dependent serotonin transporter (P31652 whole entry): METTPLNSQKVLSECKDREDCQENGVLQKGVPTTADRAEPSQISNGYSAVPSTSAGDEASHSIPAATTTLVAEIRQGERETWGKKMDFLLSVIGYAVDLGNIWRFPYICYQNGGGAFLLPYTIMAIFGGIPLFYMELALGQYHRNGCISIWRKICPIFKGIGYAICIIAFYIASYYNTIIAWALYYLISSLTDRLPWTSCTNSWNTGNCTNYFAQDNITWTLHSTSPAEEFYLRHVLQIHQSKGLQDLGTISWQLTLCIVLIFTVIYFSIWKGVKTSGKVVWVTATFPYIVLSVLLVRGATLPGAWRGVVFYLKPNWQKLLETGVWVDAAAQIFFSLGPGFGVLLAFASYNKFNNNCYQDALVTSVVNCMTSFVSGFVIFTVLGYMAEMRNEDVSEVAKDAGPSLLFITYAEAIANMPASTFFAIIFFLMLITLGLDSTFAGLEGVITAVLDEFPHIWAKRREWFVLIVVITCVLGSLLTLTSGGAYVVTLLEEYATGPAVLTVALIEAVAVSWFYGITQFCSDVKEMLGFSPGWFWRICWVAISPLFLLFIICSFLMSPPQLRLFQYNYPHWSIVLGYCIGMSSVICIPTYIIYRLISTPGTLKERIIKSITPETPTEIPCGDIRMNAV
Sequence of Sodium-dependent serotonin transporter (Rattus norvegicus) (P31652 whole entry): as above
T1 sequence (P23977 whole entry): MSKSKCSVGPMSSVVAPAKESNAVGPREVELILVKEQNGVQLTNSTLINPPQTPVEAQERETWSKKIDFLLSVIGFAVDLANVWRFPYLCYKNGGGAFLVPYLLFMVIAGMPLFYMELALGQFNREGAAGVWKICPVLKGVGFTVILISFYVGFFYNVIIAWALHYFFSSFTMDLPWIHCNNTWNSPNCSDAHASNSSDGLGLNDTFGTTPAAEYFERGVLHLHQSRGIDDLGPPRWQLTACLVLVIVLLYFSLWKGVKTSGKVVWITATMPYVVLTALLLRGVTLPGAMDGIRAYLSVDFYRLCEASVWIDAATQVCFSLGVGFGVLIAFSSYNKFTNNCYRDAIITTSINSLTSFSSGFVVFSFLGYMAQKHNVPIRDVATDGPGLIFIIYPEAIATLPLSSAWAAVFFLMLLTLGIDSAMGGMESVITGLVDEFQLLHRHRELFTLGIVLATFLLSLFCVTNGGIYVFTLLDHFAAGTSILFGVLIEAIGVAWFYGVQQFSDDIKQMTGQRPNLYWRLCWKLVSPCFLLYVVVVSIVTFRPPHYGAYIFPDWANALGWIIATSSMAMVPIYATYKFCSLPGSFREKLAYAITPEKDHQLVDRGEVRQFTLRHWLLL

Structure (SMILES) | Ki [1] | Ki [2] | Ki [3] | inhibition (Rattus norvegicus [4]) | inhibition [5] | also measured
[O-][S+](CCNCCCc1ccccc1)C(c1ccc(Cl)cc1)c1ccc(Cl)cc1 (stereo not given) | 0.553 µM | 0.645 µM | 5.67 µM | – | – | –
CCCNC(=O)CSC(c1ccc(F)cc1)c1ccc(F)cc1 | 44.2 µM | – | 59.7 µM | – | – | –
O=C(C[S+]([O-])C(c1ccc(Br)cc1)c1ccc(Br)cc1)NCCCc1ccccc1 (stereo not given) | 0.892 µM | – | – | < 50% | – | –
NC(=O)C[S+]([O-])C(c1cccc(Cl)c1)c1cccc(Cl)c1 (stereo not given) | – | – | – | < 50% | < 50% | –
[O-][S+](CCNCCCc1ccccc1)C(c1ccc(Br)cc1)c1ccc(Br)cc1 (stereo not given) | 0.557 µM | 1.27 µM | 8.65 µM | – | – | –
CCCNC(=O)CSC(c1ccc(Br)cc1)c1ccc(Br)cc1 | – | – | 10.6 µM | – | – | –
CNC(=O)CSC(c1ccc(Br)cc1)c1ccc(Br)cc1 | – | – | 11 µM | – | – | –
O=C(CSC(c1ccccc1)c1ccccc1)NCC1CC1 | 20.5 µM | 13.6 µM | – | < 50% | – | –
CCCNC(=O)CSC(c1ccccc1)c1ccccc1 | 419 µM | – | 68 µM | – | < 50% | –
CC(=O)N1[C@@H]2CC[C@H]1C[C@H](OC(c1ccc(F)cc1)c1ccc(F)cc1)C2 | – | – | – | – | – | Ki [6]: 2.34 µM
Cc1ccc(C(c2ccc(C)cc2)[S+]([O-])CC(N)=O)cc1 (stereo not given) | – | – | – | < 50% | < 50% | –
CNC(=O)CSC(c1ccccc1)c1ccccc1 | 656 µM | – | – | – | – | –
O=C(CSC(c1ccc(Br)cc1)c1ccc(Br)cc1)NCCCc1ccccc1 | – | 0.238 µM | 35.5 µM | – | – | –
O=C(CSC(c1ccc(Br)cc1)c1ccc(Br)cc1)NCCCCc1ccccc1 | – | – | – | < 50% | < 50% | –
NC(=O)CSC(c1cccc(Cl)c1)c1cccc(Cl)c1 | 808 µM | – | 45.4 µM | – | < 50% | Ratio Ki (Rattus norvegicus [7]): > 2900
CCCCNC(=O)CSC(c1ccccc1)c1ccccc1 | – | – | – | < 50% | < 50% | –
NC(=O)CSC(c1ccccc1)c1ccccc1 | – | – | 285 µM | < 50% | – | –

Structure (SMILES) | Ki [1] | Ki [2] | Ki [3] | inhibition (Rattus norvegicus [4]) | inhibition [5] | also measured
CCCCNCC[S+]([O-])C(c1ccccc1)c1ccccc1 (stereo not given) | 63.6 µM | – | 138 µM | – | – | –
C=CCNC(=O)CSC(c1ccccc1)c1ccccc1 | 303 µM | 8.37 µM | 171 µM | < 50% | < 50% | –
CCCCNCCSC(c1ccccc1)c1ccccc1 | 5.7 µM | 0.31 µM | 11.5 µM | – | – | –
CCCNC(=O)CSC(c1ccc(Cl)cc1)c1ccc(Cl)cc1 | 10.1 µM | – | – | – | – | –
NCCSC(c1ccccc1)c1ccccc1 | 0.221 µM | – | – | – | – | –
c1ccc(CCCNCCSC(c2ccccc2)c2ccccc2)cc1 | 0.927 µM | – | 5.5 µM | – | – | –
O=C(CSC(c1ccc(F)cc1)c1ccc(F)cc1)NCC1CC1 | 34 µM | 6.7 µM | – | – | – | –
O=C(CSC(c1ccc(F)cc1)c1ccc(F)cc1)NCCCc1ccccc1 | 3.5 µM | – | – | < 50% | – | –
[O-][S+](CCNCCCc1ccccc1)C(c1ccc(F)cc1)c1ccc(F)cc1 (stereo not given) | 1.28 µM | 0.183 µM | – | – | – | –
NCC[S+]([O-])C(c1ccccc1)c1ccccc1 (stereo not given) | 3.38 µM | – | – | – | – | –
CNC(=O)C[S+]([O-])C(c1ccccc1)c1ccccc1 (stereo not given) | – | 13.1 µM | – | < 50% | < 50% | –
NC(=O)C[S+]([O-])C(c1cccc(F)c1)c1cccc(F)c1 (stereo not given) | – | 5.93 µM | – | < 50% | < 50% | –
CNC(=O)CSC(c1ccc(Cl)cc1)c1ccc(Cl)cc1 | 10.7 µM | – | – | – | – | –
NC(=O)C[S+]([O-])C(c1ccccc1)c1cccc(Br)c1 (racemic) | – | – | – | < 50% | < 50% | –
O=C(CSC(c1ccc(Br)cc1)c1ccc(Br)cc1)NCC1CC1 | 7.03 µM | 0.975 µM | – | < 50% | – | –
O=C(CSC(c1ccccc1)c1ccccc1)NCCCCc1ccccc1 | – | – | – | – | < 50% | –
